Results on seven molecules are retold here after patent USRE47302E1 (ONYX THERAPEUTICS INC., priority 2013, dated 2019).

SMILES strings stand for the structures. Converted amounts (≈) assume the structure as drawn. Read-outs that look alike come from different tables or passages of the source.

The term IC50 denotes the concentration needed to halve the response being measured. As a reminder, the solubility is the concentration that dissolves in the medium under given conditions.

Series [1] concerns the target T1, immunoproteasome subunit LMP7 (Homo sapiens, UniProt P28062).
T1 construct: Lysate from the human acute lymphoblastic leukemia cell line, MOLT-4; endogenous in cells; host or cells: MOLT-4
Briefly: Proteasome active-site ELISA (ProCISE), LMP7, MOLT-4 lysate. It counts as biochemical. The method, then: (§1) Test compounds were serially diluted in DMSO at 100× concentration, then diluted to 10× in aqueous hypotonic lysis buffer. Lysate from the human acute lymphoblastic leukemia cell line, MOLT-4, was treated for 1 hour at 25° C. with compound at a final 1× concentration. […] Following, lysate was denatured in guanidine hydrochloride, and subunits bound to probe were isolated with streptavidin-conjugated sepharose beads. Individual subunits (e.g., β5, LMP7, LMP2, MECL-1) were probed with subunit-specific primary antibodies, followed by HRP-conjugated secondary antibodies. A chemiluminescent substrate was used to generate signal associated with HRP binding, which was detected on a plate reader. Luminescent signal was normalized to protein content, then, percent activity calculated relative to DMSO-treated controls to generate IC50 curves.
For orientation: In an ELISA, binding on a coated surface is turned into a signal by an enzyme label.

Series [2] deals with T2, proteasome subunit β5 (beta5) (Homo sapiens, UniProt P28074).
T2 construct: Lysate from the human acute lymphoblastic leukemia cell line, MOLT-4; endogenous in cells; host or cells: MOLT-4
Nature of the series: Proteasome active-site ELISA (ProCISE), beta5, MOLT-4 lysate. It counts as biochemical. The method, then:
as §1

Series [3] can be described thus: Solubility pH 7. To be noted: for solubility: pH 7, aqueous buffer.
Where [4] appears, read: MOLT4 lysate, 1 h continuous treatment, 25° C.
Setting [5] is: MOLT4 lysate, human, 1 h continuous treatment, 25° C.

For the molecule `COc1ccc(C[C@H](NC(=O)[C@H](C)NC(=O)CN2CCOCC2)C(=O)N[C@@H](CC2CCCC2)C(=O)[C@H]2CO2)cc1OC` [Compound C-1071, (S)-N-((S)-3-cyclopentyl-1-((R)-oxiran-2-yl)-1-oxopropan-2-yl)-3-(3,4-dimethoxyphenyl)-2-((S)-2-(2-morpholinoacetamido)propanamido)propanamide], the IC50 in series [1] (setting [4]) came to 106 nM; in series [2] (setting [5]) it was 3890 nM. Further, the solubility in series [3] was 4300 µg/mL (≈ 7.3 mM).
On to `COc1ccc(C[C@H](NC(=O)[C@@H](C)NC(=O)[C@H]2CC[C@H](O)CC2)C(=O)N[C@@H](CC2CCCC2)C(=O)[C@@]2(C)CO2)cc1O` [Compound C-1072, (1r,4R)-N-((R)-1-(((S)-1-(((S)-3-cyclopentyl-1-((R)-2-methyloxiran-2-yl)-1-oxopropan-2-yl)amino)-3-(3-hydroxy-4-methoxyphenyl)-1-oxopropan-2-yl)amino)-1-oxopropan-2-yl)-4-hydroxycyclohexanecarboxamide], for which the IC50 in series [1] (read-out: ProCISE LMP7 MOLT4 lysate Hu 1 h CONT: IC50, 1 h continuous treatment, 25° C.) is 39.7 nM; in series [2] (read-out: ProCISE beta5 MOLT4 lysate Hu 1 h CONT: IC50, MOLT4 lysate, human, 1 h continuous treatment, 25° C.) it was 3390 nM. Also, the “Solubility pH 7 (μg/mL)” value in series [3] (pH 7) was 4742.65 μg/mL.
For `COc1ccc(C[C@H](NC(=O)[C@@H](C)NC(=O)[C@H]2CC[C@H](O)CC2)C(=O)N[C@@H](CC2CC=CC2)C(=O)[C@@]2(C)CO2)cc1` [Compound C-1074, (1r,4R)-N-((R)-1-(((S)-1-(((S)-3-(cyclopent-3-en-1-yl)-1-((R)-2-methyloxiran-2-yl)-1-oxopropan-2-yl)amino)-3-(4-methoxyphenyl)-1-oxopropan-2-yl)amino)-1-oxopropan-2-yl)-4-hydroxycyclohexanecarboxamide], the IC50 in series [1] (setting [4]) was 26.2 nM; in series [2] it was 778 nM. The solubility in series [3] was 1150 µg/mL (≈ 2.02 mM).
As to `COc1ccc(C[C@H](NC(=O)[C@@H](C)NC(=O)[C@H]2CC[C@@H](O)C2)C(=O)N[C@@H](CC2CCCC2)C(=O)[C@@]2(C)CO2)cc1` [Compound C-1075, (1S,3R)-N-((R)-1-(((S)-1-(((S)-3-cyclopentyl-1-((R)-2-methyloxiran-2-yl)-1-oxopropan-2-yl)amino)-3-(4-methoxyphenyl)-1-oxopropan-2-yl)amino)-1-oxopropan-2-yl)-3-hydroxycyclopentanecarboxamide], the IC50 in series [1] (setting [4]) amounted to 92.1 nM; in series [2] (setting [5]) it was 788 nM. Further, in series [3], the solubility came out at 1650 µg/mL (≈ 2.95 mM).
In the same order, the values of `COc1ccc([C@@H](O)[C@H](NC(=O)[C@@H](C)NC(=O)[C@H]2CC[C@H](O)CC2)C(=O)N[C@@H](CC2CCCC2)C(=O)[C@@]2(C)CO2)cc1` [Compound C-1079, (1r,4R)-N-((R)-1-(((2S,3R)-1-(((S)-3-cyclopentyl-1-((R)-2-methyloxiran-2-yl)-1-oxopropan-2-yl)amino)-3-hydroxy-3-(4-methoxyphenyl)-1-oxopropan-2-yl)amino)-1-oxopropan-2-yl)-4-hydroxycyclohexanecarboxamide] are 34.6 nM, 2230 nM and 2050 µg/mL (≈ 3.49 mM).
Take `COc1ccc([C@@H](O)[C@H](NC(=O)[C@H](C)NC(=O)CN2CCOCC2)C(=O)N[C@@H](CC2=CCCCC2)C(=O)[C@@]2(C)CO2)cc1` [Compound C-1082, (2S,3R)-N-((S)-3-(cyclohex-1-en-1-yl)-1-((R)-2-methyloxiran-2-yl)-1-oxopropan-2-yl)-3-hydroxy-3-(4-methoxyphenyl)-2-((S)-2-(2-morpholinoacetamido)propanamido)propanamide]: the IC50 was found to be 86.6 nM in series [1] (setting [4]) and 3530 nM in series [2] (setting [5]). The same molecule gave a solubility in series [3] of 6130 µg/mL (≈ 10.2 mM).
Turning to `COc1ccc([C@@H](O)[C@H](NC(=O)[C@H](C)NC(=O)CN2CCOCC2)C(=O)N[C@@H](CC2=CCCC2)C(=O)[C@@]2(C)CO2)cc1` [Compound C-1083, (2S,3R)-N-((S)-3-(cyclopent-1-en-1-yl)-1-((R)-2-methyloxiran-2-yl)-1-oxopropan-2-yl)-3-hydroxy-3-(4-methoxyphenyl)-2-((S)-2-(2-morpholinoacetamido)propanamido)propanamide], the IC50 in series [1] (setting [4]) was determined as 40.3 nM; in series [2] (setting [5]) it was 561 nM. The concentration in solution in series [3] (solubility) was 7070 µg/mL (≈ 12.1 mM).
